Data as given in patent publication US9629885B1, “Method for treating candidiasis” (KING SAUD UNIVERSITY, priority 2016, dated 2017).
Converted amounts (≈) assume the structure as drawn.

Assays:
[1] = system: Male Wister rats; experiment: Sub-chronic toxicity test, liver and kidney functions; assay type: in vivo
Experimental: Male Wister rats (weighing about 150-180 g) were divided into 3 equal groups each of 10 rats. Rats of the first group received the vehicle in a dose of 5 mL/kg and left as normal control. Rats of the second and third groups were administered the alcoholic extract of the investigated fungi (500 mg/kg) and the isolated compound (50 mg/kg). All medications were administered orally daily for 15 consecutive days. Animals were maintained under identical conditions with food and water ad libitum for the entire period with close observation. At the end of the experimental period, blood samples were collected from the orbital plexus of rats, 6 h after the last dose. Samples were left to clot at room temperature for 20 min. The obtained sera were collected and used to determine the activity of (AST) aspirate aminotransferase and (ALT) alanine aminotransferase, levels of urea and creatinine were also estimated (Awaad et al. 2014).
The effect of the total alcohol extract of Petriella setifera and isolated compound (Amnomopin) on liver and kidney functions are provided in Table 2. Three groups of animals (n=10) were orally administered the total alcohol extracts (500 mg/kg) and the isolated compound (50 mg/kg) daily for 15 days, while the control group received water orally. After the treatment period, blood samples were collected, sera were separated and different parameters were measured as provided in Table 2. All values were expressed as mean±S.D.

[2] = system: C. famata; experiment: Anticandidal activity, well-diffusion method; assay type: cell-based; conditions: 50 μl per 6 mm well, 100 mg/ml, 37° C., 24-48 h
Excerpt: (§1) The fungal strain was isolated from a soil sample collected from Al-Qassim region, Kingdom of Saudi Arabia (KSA). The malt extract agar (MEA) medium (malt extract, 20 g; peptone, 1 g; dextrose, 20 g; agar, 20 g; distilled water, 1 L) was used for isolation, cultivation, identification and production of fungal secondary metabolites of the fungal isolate and test Candida species. Ten clinically isolated Candida species; namely, Candida albicans, C. dubliniensis, C. famata, C. glabrata, C. inconspicua, C. kefyr, C. krusei, C. norvegensis, C. parapsilosis, and C. tropicalis were used as test microorganisms. The fungal isolate and the test organism were identified at the Microbiology Laboratory, Regional Center for Mycology and Biotechnology, Al-Azhar University, Cairo, Egypt.
(§2) Anticandidal activities of total alcoholic extract of Petriella setifera and the isolated compound (amnomopin) were determined using well-diffusion method according to Zain et al. (2012). Petri plates containing 20 ml of malt extract agar medium were seeded with 48 h cultures of candidal inoculums (1-2×10^7 Colony Forming Units [CFU/ml]). Wells (6 mm in diameter) were cut off into agar and 50 μl of extract and the isolated compound were tested in a concentration of 100 mg/ml and incubated at 37° C. for 24-48h. The assessment of anticandidal activity was based on measurement of the diameter of the inhibition zone formed around the well.

[3] = system: C. inconspicua; experiment: Anticandidal activity, well-diffusion method; assay type: cell-based; conditions: 50 μl per 6 mm well, 100 mg/ml, 37° C., 24-48 h
Excerpt: as §1, §2

[4] = system: Candida albicans; experiment: Anticandidal activity, well-diffusion method; assay type: cell-based; conditions: C. albicans, 50 μl per 6 mm well, 100 mg/ml, 37° C., 24-48 h
Excerpt: as §1, §2

[5] = system: C. dubliniensis; experiment: Anticandidal activity, well-diffusion method; assay type: cell-based; conditions: 50 μl per 6 mm well, 100 mg/ml, 37° C., 24-48 h
Excerpt: as §1, §2

[6] = system: C. kefyr; experiment: Anticandidal activity, well-diffusion method; assay type: cell-based; conditions: 50 μl per 6 mm well, 100 mg/ml, 37° C., 24-48 h
Excerpt: as §1, §2

[7] = system: C. norvegensis; experiment: Anticandidal activity, well-diffusion method; assay type: cell-based; conditions: 50 μl per 6 mm well, 100 mg/ml, 37° C., 24-48 h
Excerpt: as §1, §2

[8] = system: C. tropicalis; experiment: Anticandidal activity, well-diffusion method; assay type: cell-based; conditions: 50 μl per 6 mm well, 100 mg/ml, 37° C., 24-48 h
Excerpt: as §1, §2

[9] = system: C. glabrata; experiment: Anticandidal activity, well-diffusion method; assay type: cell-based; conditions: 50 μl per 6 mm well, 100 mg/ml, 37° C., 24-48 h
Excerpt: as §1, §2

[10] = system: C. krusei; experiment: Anticandidal activity, well-diffusion method; assay type: cell-based; conditions: 50 μl per 6 mm well, 100 mg/ml, 37° C., 24-48 h
Excerpt: as §1, §2

[11] = system: C. parapsilosis; experiment: Anticandidal activity, well-diffusion method; assay type: cell-based; conditions: 50 μl per 6 mm well, 100 mg/ml, 37° C., 24-48 h
Excerpt: as §1, §2

[12] = system: C. famata; experiment: Minimum inhibitory concentration, micro-dilution method; assay type: cell-based; conditions: malt extract broth, 37° C., 24-48 h
Excerpt: as §1
(§3) The minimum inhibitory concentration (MIC) was determined for both total extract of Petriella setifera and the isolated compound by micro-dilution method using serially diluted (2 folds) according to Awaad et al. (2012). The MIC was determined by dilution of total extract and isolated compound of concentrations of 0.0-1000 μg/ml. Equal volume of each extract and malt extract broth were mixed in a test tube. Specifically, 0.1 ml of standardized inoculum (1-2×10^7 CFU/ml) was added in each tube. The tubes were incubated at 37° C. for 24-48 h. Two control tubes; tube containing the growth medium, saline and the inoculum, were maintained for each test batch. The lowest concentration (highest dilution) of the extract that produced no visible candidal growth (no turbidity) when compared with the control tubes were regarded as MIC.

[13] = system: C. inconspicua; experiment: as above; assay type: cell-based; conditions: malt extract broth, 37° C., 24-48 h
Excerpt: as §1, §3

[14] = system: Candida albicans; experiment: as above; assay type: cell-based; conditions: C. albicans, malt extract broth, 37° C., 24-48 h
Excerpt: as §1, §3

[15] = system: C. dubliniensis; experiment: as above; assay type: cell-based; conditions: malt extract broth, 37° C., 24-48 h
Excerpt: as §1, §3

[16] = system: C. kefyr; experiment: as above; assay type: cell-based; conditions: malt extract broth, 37° C., 24-48 h
Excerpt: as §1, §3

[17] = system: C. norvegensis; experiment: as above; assay type: cell-based; conditions: malt extract broth, 37° C., 24-48 h
Excerpt: as §1, §3

[18] = system: C. tropicalis; experiment: as above; assay type: cell-based; conditions: malt extract broth, 37° C., 24-48 h
Excerpt: as §1, §3

[19] = system: C. glabrata; experiment: as above; assay type: cell-based; conditions: malt extract broth, 37° C., 24-48 h
Excerpt: as §1, §3

[20] = system: C. krusei; experiment: as above; assay type: cell-based; conditions: malt extract broth, 37° C., 24-48 h
Excerpt: as §1, §3

[21] = system: C. parapsilosis; experiment: as above; assay type: cell-based; conditions: malt extract broth, 37° C., 24-48 h
Excerpt: as §1, §3

[22] = rat serum, oral daily for 15 days, mean±S.D., n=10

CC1(C)CCC2(C(=O)O)CCC3(C)C(CCC4C5(C)CCC(O[C@@H]6OC(CO)[C@@H](O)C(O)C6O[C@@H]6OC(CO)[C@@H](O)C(O)C6O)C(C)(C)C5=CCC43C)C2C1 (stereo partly drawn) [Amnomopin, 3β-diglucoside-5, 12-28-oic acid]
Kidney function Blood urea [1, 22]: 30.85 ± 1.83 mg/dL | Kidney function Serum Creatinine [1, 22]: 0.38 ± 0.02 mg/dL | Liver function ALT [1, 22]: 146.30 ± 4.30 U/l | Liver function AST [1, 22]: 66.72 ± 2.82 U/l | effect on the activity of ALT, AST and the levels of blood urea and serum creatinine ([1]; rats, oral dosing for 15 days, extract 500 mg/kg, compound 50 mg/kg): did not show any significant effect | zone of inhibition at 100000 µg/mL ([2]; Debaryomyces hansenii, read-out: Diameter of inhibition zone): 20.1 ± 1.5 mm | zone of inhibition at 100000 µg/mL ([3]; Pichia inconspicua, read-out: Diameter of inhibition zone): 18.3 ± 2.1 mm | Diameter of inhibition zone [4]: 23.1 ± 2.10 mm | zone of inhibition at 100000 µg/mL ([4]; Candida albicans, read-out: Diameter of inhibition zone): 23.1 ± 2.1 mm | zone of inhibition at 100000 µg/mL ([5]; Candida dubliniensis, read-out: Diameter of inhibition zone): 16.2 ± 0.63 mm | Diameter of inhibition zone [6]: 24.2 ± 2.10 mm | zone of inhibition at 100000 µg/mL ([6]; Kluyveromyces marxianus, read-out: Diameter of inhibition zone): 24.2 ± 2.1 mm | Diameter of inhibition zone [7]: 22.1 ± 1.20 mm | zone of inhibition at 100000 µg/mL ([7]; Pichia norvegensis, read-out: Diameter of inhibition zone): 22.1 ± 1.2 mm | zone of inhibition at 100000 µg/mL ([8]; Candida tropicalis, read-out: Diameter of inhibition zone): 19.4 ± 1.2 mm | zone of inhibition at 100000 µg/mL ([9]; Nakaseomyces glabratus, read-out: Diameter of inhibition zone): 16.3 ± 0.63 mm | zone of inhibition at 100000 µg/mL ([10]; Pichia kudriavzevii, read-out: Diameter of inhibition zone): 20.9 ± 0.58 mm | zone of inhibition at 100000 µg/mL ([11]; Lodderomyces parapsilosis, read-out: Diameter of inhibition zone): 18.4 ± 0.72 mm | MIC ([12]; Debaryomyces hansenii): 3.9 µg/mL (≈ 4.99 µM) | MIC ([13]; Pichia inconspicua): 32.2 µg/mL (≈ 41.3 µM) | Minimum Inhibitory Concentration (MIC) [14]: 01.95 µg/mL | Minimum Inhibitory Concentration (MIC) ([14]; listed as amnomopin): 00.49 µg/mL | MIC ([15]; Candida dubliniensis): 62.5 µg/mL (≈ 80 µM) | MIC ([16]; Kluyveromyces marxianus): 0.49 µg/mL (≈ 0.627 µM) | Minimum Inhibitory Concentration (MIC) [16]: 00.98 µg/mL | MIC ([17]; Pichia norvegensis): 0.98 µg/mL (≈ 1.25 µM) | Minimum Inhibitory Concentration (MIC) [17]: 01.95 µg/mL | MIC ([18]; Candida tropicalis): 7.81 µg/mL (≈ 10 µM) | MIC ([19]; Nakaseomyces glabratus): 62.5 µg/mL (≈ 80 µM) | MIC ([20]; Pichia kudriavzevii): 1.95 µg/mL (≈ 2.5 µM) | MIC ([21]; Lodderomyces parapsilosis): 32.2 µg/mL (≈ 41.3 µM)

C[C@@H]1[C@H](O)[C@@H](C)/C=C/C=C/C=C/C=C/C=C/C=C/C=C/[C@H](O[C@@H]2O[C@H](C)[C@@H](O)[C@H](N)[C@@H]2O)C[C@@H]2O[C@](O)(C[C@@H](O)C[C@@H](O)[C@H](O)CC[C@@H](O)C[C@@H](O)CC(=O)O[C@H]1C)C[C@H](O)[C@H]2C(=O)O [Amphotericin B, reference compound]
Diameter of inhibition zone [2]: 20.4 ± 0.63 mm | Diameter of inhibition zone [3]: 21.9 ± 1.20 mm | Diameter of inhibition zone [4]: 26.3 ± 1.20 mm | Diameter of inhibition zone [5]: 24.1 ± 1.20 mm | Diameter of inhibition zone [6]: 26.3 ± 1.20 mm | Diameter of inhibition zone ([6]; listed as amphotericin B): 26.3±1.20 mm | Diameter of inhibition zone [7]: 28.7 ± 0.72 mm | Diameter of inhibition zone [8]: 19.6 ± 1.50 mm | Diameter of inhibition zone [9]: 19.3 ± 2.10 mm | Diameter of inhibition zone [10]: 23.7 ± 0.63 mm | Diameter of inhibition zone [11]: 32.4 ± 0.58 mm | Minimum Inhibitory Concentration (MIC) [12]: 03.90 µg/mL | Minimum Inhibitory Concentration (MIC) [13]: 00.98 µg/mL | Minimum Inhibitory Concentration (MIC) [14]: 00.49 µg/mL | Minimum Inhibitory Concentration (MIC) [15]: 00.49 µg/mL | Minimum Inhibitory Concentration (MIC) [16]: 00.49 µg/mL | Minimum Inhibitory Concentration (MIC) [17]: 00.49 µg/mL | Minimum Inhibitory Concentration (MIC) [18]: 03.90 µg/mL | Minimum Inhibitory Concentration (MIC) [19]: 03.90 µg/mL | Minimum Inhibitory Concentration (MIC) [20]: 00.98 µg/mL | Minimum Inhibitory Concentration (MIC) [21]: 00.49 µg/mL
